Assay results: patent US20250144069A1, “BILOBALIDE DERIVATIVE COMPOUNDS FOR TREATING NEUROLOGICAL DISEASES AND CANCERS” (The Chinese University of Hong Kong, priority 2023, published 2025)

Experiments:
[1] = system: Jurkat cells; test: Single-dose CCK-8 cell viability screening (suspension cells); type: cell-based, human; conditions: Homo sapiens, Jurkat, 48 h, Jurkat cells, 50 uM, CCK-8, read-out: % Viability (50 uM, 48 h) Jurkat
[2] = system: GPX4; test: GPX4 protein level by Western-blot; type: cell-based
Excerpt: As mentioned above, RSL3 treatment results in an oxidized environment in cells, which promotes the CMA to scavenge damaged proteins including GPX4 or glyceraldehyde-3-phosphate dehydrogenase (GAPDH), a well-known CMA substrate. To gain insights into the mechanism of action of bilobalide analogue XBB-037 against the RSL3-induced ferroptosis, HMC3 cells were pre-treated with RSL3, followed by treatment with or without bilobalide analogue XBB-037.
(§1) In FIN56 assay, HMC3 (300,000 cells per well on 6-well plate) was pre-treated with FIN56 (2.5, 1.25, 0.625 μM) for 2 h, followed by 8 h treatment of DMSO only (0.1%) or XBB-037 (50 μM). In RSL3 assay, HMC3 (300,000 cells per well on 6-well plate) was pre-treated with RSL3 (750, 500, 250 nM) for 2 h, followed by 4 h or 8 h treatment of DMSO only (0.1%) or XBB-037 (50 μM). […] Antibodies for GPX4 (52455, CST) was used at 1:500 dilution, β-Actin (AC026, ABclonal) was used at 1:400,000 dilution, GAPDH (AC035, ABclonal) was used at 1:3000 dilution. […] Band intensity was normalized by image lab software.
Now referring to FIGS. 7E-7F, GPX4 levels in HMC3 cells pre-treated with RSL3 are shown. Protein levels of GPX4 and […] at 0, 250, 500 or 750 nM RSL3 were measured by Western-blot. HMC3 cells were pretreated with RSL3 for 2 hours and then treated with or without 50 μM bilobalide analogue XBB-037 for 4 hours.
In addition to […], FIN56 was further used to investigate the GPX4 regulation of bilobalide analogue XBB-037. As mentioned above, FIN56 is a Class III ferroptosis inducer, which causes the depletion of cellular GPX4 levels without affecting GPX4 activity. In this experiment, HMC3 cells were pretreated with FIN56 for 2 hours and then treated with or without 50 μM XBB-037 for 8 hours. Protein levels were measured by Western-blotting using indicated antibodies. Data were plotted as mean±s.d., n=3 technical replicates. **p<0.01. Statistical analyses were performed by two-way ANOVA with multiple comparisons using Two-stage linear step-up procedure of Benjamini, Krieger and Yekutieli multiple comparisons test. […]

[3] = system: GAPDH; test: GAPDH protein level by Western-blot after RSL3; type: cell-based; conditions: HMC3, 500 nM RSL3 2 h, then various concentrations of compound 8 h
Method: as §1
This observation reflected the governing of GPX4 by bilobalide analogue XBB-037, which played an important role in the mechanism against RSL3-induced ferroptosis.

CC(C)(C)[C@]1(O)C[C@@H]2OC(=O)C[C@@]23C(=O)O[C@@H]2N(c4ccc(N)cc4)C(=O)[C@H](OC(=O)c4ccccc4)[C@]213 [XBB-037, 4-(3aS,5aS,8R,9R,10aS)-8-(benzoyloxy)-9-(tert-butyl)-9-hydroxy-2,4,7-trioxohexahydro-4H,9H-furo[3″,2″:2′,3′]cyclopenta[1′,2′:3,4]furo[2,3-b]pyrrol-6(5aH)-yl)benzenaminium chloride]
viability at 50 µM [1]: 86% | GPX4 level after FIN56 ([2]; HMC3, FIN56 0.625, 1.25, 2.5 μM 2 h, then 50 μM compound 8 h): significantly restored GPX4 level | GPX4 level after RSL3 ([2]; HMC3, RSL3 0, 250, 500 or 750 nM 2 h, then 50 μM compound 4 h): RSL3-induced GPX4 degradation was reduced | GAPDH level after RSL3 [3]: restored the level of GAPDH
